From article PMC5640650, “NatD promotes lung cancer progression by preventing histone H4 serine phosphorylation to activate Slug expression” (Nature Communications, 2017) come the findings set out here.

Format in all cases: cell-based, human
Data set [1] has as its system H1299 cells. As to the kind of experiment: Time-lapse cell-tracking, H1299 cells. The settings on record: HoloMonitor M4, vs Scr. An excerpt:
(§1) Fig. 2 NatD is required for lung cancer cell migration and invasion in vitro. a Quantitative real-time PCR analysis of NatD mRNA levels normalized to GAPDH in scrambled control cells (Scr) and NatD-KD1 and NatD-KD2 cells. Results are shown as mean ± s.d. from three independent experiments. Two-tailed Student’s t-test was used. **P < 0.01 compared to Scr control. b Western blot analysis of NatD and Nt-ac-H4 protein levels in scrambled, NatD-KD1, and NatD-KD2 cells. GAPDH and histone H4 served as loading controls. Blots are representative of three independent experiments. c Representative images from wound healing assay of scrambled, NatD-KD1, and NatD-KD2 cells from three independent experiments (left panels). Wound healing assay results are quantified in the histogram (right panel). […] Cell migration and invasion are expressed as a percentage of control (bottom panel). […]
The in vitro viability of H1299 cells was assessed using the Cell Counting Kit-8 (CCK-8, Dojindo, Japan) according to the manufacturer’s protocol. Flow cytometric analysis of apoptosis was assessed by Annexin V and PI staining using the Annexin V-APC Apoptosis Detection Kit (KeyGEN BioTECH, China) according to the manufacturer’s guide. […] The samples were analyzed by flow cytometry (Becton Dickinson, NJ, USA), and results were analyzed with FlowJo software according to the manufacturer’s instructions. […]

In data set [2] the test system is H1299 cells. The data set is described as follows: Cell growth (CCK-8), H1299 cells. The settings on record: vs Scr. How it is done: The in vitro viability of H1299 cells was assessed using the Cell Counting Kit-8 (CCK-8, Dojindo, Japan) according to the manufacturer’s protocol. Flow cytometric analysis of apoptosis was assessed by Annexin V and PI staining using the Annexin V-APC Apoptosis Detection Kit (KeyGEN BioTECH, China) according to the manufacturer’s guide. For cell cycle analysis, cells were harvested and fixed at 4 °C overnight with 70% ethanol. Cells were washed twice with PBS, and their DNA was stained using a Cell Cycle Detection Kit (KeyGEN BioTECH, China). The samples were analyzed by flow cytometry (Becton Dickinson, NJ, USA), and results were analyzed with FlowJo software according to the manufacturer’s instructions. For the wound healing assay, cells were plated to confluence in a 6-well plate, and the cell monolayer was scratched using a pipette tip. Representative photos were taken using a digital camera mounted on an inverted microscope (Olympus) at indicated times. Live cell imaging was performed using the HoloMonitor M4 time-lapse cytometer (Phase Holographic Imaging, Sweden). […]
Supplementary Figure 1. […] (b and c) Representative images from three independent experiments of apoptosis (b) and cell cycle analysis (c) of Scr and NatD-KD H1299 cells analyzed by flow cytometry. […]

In data set [3] the test system is H1299 cells. As to the kind of experiment: Transwell migration and invasion assay, H1299 cells. The settings on record: 12 h, knockdown vs Scr.
Source text: as §1, with “Blots are representative of three independent experiments. c Representative images from wound healing assay of scrambled, NatD-KD1, and NatD-KD2 cells from three independent experiments (left panels).” left out
Fig. 5 Regulation of Slug by NatD is acetyltransferase activity-dependent. a (left) In vitro acetylation assay showing the catalytic activity of NatDΔ and wild-type NatD (CPM, counts per minute). […] (bottom) Histones shown by Coomassie blue staining. d Quantitative real-time PCR analysis of mRNA levels of Slug, E-cadherin, N-cadherin, and Vimentin normalized to GAPDH in H1299 cells overexpressing NatDΔ or wild-type NatD. […] Cell migration and invasion are expressed as a percentage of control (bottom panel). […]
The in vitro viability of H1299 cells was assessed using the Cell Counting Kit-8 (CCK-8, Dojindo, Japan) according to the manufacturer’s protocol. […]

Take “NatD-KD1: Human NatD shRNA KD1: 5′-GATGAAGAAGGTTATGTTA-3′, lentiviral (shRNA, lentiviral)”: the random motility result with H1299 cells [1] is “lower random motility”. In addition, the cell growth rate result in the data set with H1299 cells [2] was “grew at a similar rate”. Moreover, the “migratory and invasive capabilities (transwell)” value in the data set with H1299 cells [3] was “significantly reduced”.

Regarding “NatD-KD2: Human NatD shRNA KD2: 5′-GGTTGAATGTCTCCATTGA-3′, lentiviral (shRNA lentiviral)”, the random motility result in the data set on H1299 cells [1] is “lower random motility”. In the data set with H1299 cells [2], the cell growth rate entry is “grew at a similar rate”. Further, the “migratory and invasive capabilities (transwell)” value with H1299 cells [3] was “significantly reduced”.
